For one experiment, the system named is green peach aphid (Myzus persicae). Kind of experiment: Myzus test (MYZUPE spray treatment). It is filed as in vivo. The following applies: application rate 500 g/ha; Chinese cabbage leaf discs sprayed; after 6 days. On the procedure: Myzus Test (MYZUPE Spray Treatment)
• Solvents: 78 parts by weight of acetone • 1.5 parts by weight of dimethylformamide • Emulsifier: 0.5 part by weight of alkylaryl polyglycol ether
To produce a suitable preparation of active compound, 1 part by weight of active compound is mixed with the stated amounts of solvent and emulsifier, and the concentrate is diluted with emulsifier-containing water to the desired concentration. Discs of Chinese cabbage (Brassica pekinensis) which are infested by all stages of the green peach aphid (Myzus persicae) are sprayed with an active compound preparation of the desired concentration. After 6 days, the effect in % is determined. 100% means that all aphids have been killed; 0% means that none of the aphids have been killed.
For the compound `CCc1c(-c2ccc(F)cc2)ccc(C)c1C1=C(OC(=O)C(C)C)C2(CCC(OC)CC2)NC1=O` (centres unmarked) [Example I-1-b-2], the “efficacy (aphids killed)” value turned out to be 90%.
Turning to `O=C1NC2(CCOCC2)C(O)=C1c1c(Cl)ccc(-c2ccc(F)cc2)c1Cl` [Example I-1-a-6], the “efficacy (aphids killed)” value came out at 100%.
As to `CCOC(=O)OC1=C(c2c(CC)ccc(-c3ccc(Cl)cc3)c2CC)C(=O)NC12CCOCC2` [Example I-1-c-1], the “efficacy (aphids killed)” value was 90%.
Still for that read-out and setting: the value for `CCOC(=O)OC1=C(c2c(CC)ccc(-c3ccc(Cl)cc3)c2C)C(=O)NC12CCC(OC)CC2` (centres unmarked) [Example I-1-c-2] was 100%; that for `CCc1ccc(-c2ccc(Cl)cc2)c(C)c1C1=C(OC(=O)C(C)C)C2(CCC(OC)CC2)NC1=O` (centres unmarked) [Example I-1-b-4] was 100%.
The same measure, in the same setting: the value for `CCc1ccc(-c2ccc(F)cc2)c(C)c1C1=C(OC(=O)C(C)C)C2(CCC(OC)CC2)NC1=O` (centres unmarked) [Example I-1-b-3] was 90%; that for `CCc1ccc(-c2ccc(Cl)cc2)c(C)c1C1=C(O)C2(CCC(OC)CC2)NC1=O` (centres unmarked) [Example I-1-a-21] was 100%.
Same read-out and setting: the value for `CCc1ccc(-c2ccc(Cl)cc2)c(CC)c1C1=C(O)C2(CCOCC2)OC1=O` [Example I-2-a-3] was 90%; that for `CCc1ccc(-c2ccc(Cl)cc2)c(C)c1C1=C(O)C2(CCOCC2)OC1=O` [Example I-2-a-7] was 100%; that for `CCOC(=O)OC1=C(c2c(CC)ccc(-c3ccc(F)cc3)c2C)C(=O)NC12CCC(OC)CC2` (single isomer, unassigned) [Example I-1-c-3] was 100%.
With `CCc1ccc(-c2ccc(Cl)cc2)c(CC)c1C1=C(O)[C@]2(CC[C@@H](OC)CC2)OC1=O` [Example I-2-a-2], the “efficacy (aphids killed)” value is reported as 90%.
With `CCc1c(-c2ccc(Cl)cc2)ccc(C)c1C1=C(O)C2(CCC(OC)CC2)NC1=O` (centres unmarked) [Example I-1-a-16], the “efficacy (aphids killed)” value stood at 100%.
On the same count and under the same terms, the value for `CCc1ccc(-c2ccc(F)cc2)c(C)c1C1=C(O)C2(CCOCC2)NC1=O` [Example I-1-a-5] was 100%; that for `CCc1ccc(-c2ccc(F)cc2)c(CC)c1C1=C(O)C2(CCOCC2)NC1=O` [Example I-1-a-20] was 100%.

In another experiment the test system is greenhouse red spider mite (Tetranychus urticae). In words: Tetranychus test; OP-resistant (TETRUR spray treatment). It is filed as in vivo. The following applies: application rate 100 g/ha; bean leaf discs sprayed; after 6 days. As to the method:
Tetranychus Test; OP-Resistant (TETRUR Spray Treatment)
(§1) • Solvents: 78.0 parts by weight of acetone • 1.5 parts by weight of dimethylformamide • Emulsifier: 0.5 part by weight of alkylaryl polyglycol ether
To produce a suitable preparation of active compound, 1 part by weight of active compound is mixed with the stated amounts of solvent and emulsifier, and the concentrate is diluted with emulsifier-containing water to the desired concentration. Discs of bean leaves (Phaseolus vulgaris), which are infested by all stages of the greenhouse red spider mite (Tetranychus urticae) are sprayed with an active compound preparation of the desired concentration.
After 6 days, the effect in % is determined. 100% means that all spider mites have been killed; 0% means that none of the spider mites have been killed.
`CCc1ccc(-c2ccc(Cl)cc2)c(CC)c1C1=C(O)C2(CCN(OC)CC2)NC1=O` [Example I-1-a-24]: the “efficacy (spider mites killed)” value is 100%.
Turning to `O=C1NC2(CCOCC2)C(O)=C1c1c(Cl)ccc(-c2ccc(F)cc2)c1Cl` [Example I-1-a-6], the “efficacy (spider mites killed)” value is 100%.
On to `CCOC(=O)OC1=C(c2c(CC)ccc(-c3ccc(Cl)cc3)c2C)C(=O)NC12CCC(OC)CC2` (centres unmarked) [Example I-1-c-2], for which the “efficacy (spider mites killed)” value was 100%.
On the same count and under the same terms, to `CCc1ccc(-c2ccc(Cl)cc2)c(C)c1C1=C(OC(=O)C(C)C)C2(CCC(OC)CC2)NC1=O` (centres unmarked) [Example I-1-b-4] belongs 90%; to `CCc1ccc(-c2ccc(F)cc2)c(C)c1C1=C(OC(=O)C(C)C)C2(CCC(OC)CC2)NC1=O` (centres unmarked) [Example I-1-b-3], 100%; to `CCc1ccc(-c2ccc(Cl)cc2)c(C)c1C1=C(O)C2(CCC(OC)CC2)NC1=O` (centres unmarked) [Example I-1-a-21], 100%.
Same read-out and setting: to `CCc1ccc(-c2ccc(Cl)cc2)c(CC)c1C1=C(O)C2(CCOCC2)OC1=O` [Example I-2-a-3] belongs 100%; to `CCc1ccc(-c2ccc(Cl)cc2)c(C)c1C1=C(O)C2(CCOCC2)OC1=O` [Example I-2-a-7], 100%; to `CCOC(=O)OC1=C(c2c(CC)ccc(-c3ccc(F)cc3)c2C)C(=O)NC12CCC(OC)CC2` (single isomer, unassigned) [Example I-1-c-3], 90%.
On the same count and under the same terms, to `CCc1ccc(-c2ccc(Cl)cc2)c(CC)c1C1=C(OC(=O)C(C)C)C2(CCOCC2)NC1=O` [Example I-1-b-1] belongs 80%; to `CCc1c(-c2ccc(Cl)cc2)ccc(C)c1C1=C(O)C2(CCC(OC)CC2)NC1=O` (centres unmarked) [Example I-1-a-16], 90%.
For `CCc1ccc(-c2ccc(F)cc2)c(C)c1C1=C(O)C2(CCOCC2)NC1=O` [Example I-1-a-5], the “efficacy (spider mites killed)” value was 90%.
Same read-out and setting: to `CCc1ccc(-c2ccc(F)cc2)c(CC)c1C1=C(O)C2(CCOCC2)NC1=O` [Example I-1-a-20] belongs 100%.

For another experiment, the system named is caterpillars of the armyworm (Spodoptera frugiperda). Kind of experiment: Spodoptera frugiperda test (SPODFR spray treatment). It is filed as in vivo. The following applies: application rate 500 g/ha; maize leaf discs sprayed; after 7 days. On the procedure: Spodoptera frugiperda Test (SPODFR Spray Treatment)
as §1
To produce a suitable preparation of active compound, 1 part by weight of active compound is mixed with the stated amounts of solvent and emulsifier, and the concentrate is diluted with emulsified water to the desired concentration. Discs of maize leaves (Zea mays) are sprayed with an active compound preparation of the desired concentration and, after drying, populated with caterpillars of the armyworm (Spodoptera frugiperda).
After 7 days, the effect in % is determined. 100% means that all caterpillars have been killed; 0% means that none of the caterpillars have been killed.
For `CCc1ccc(-c2ccc(Cl)cc2)c(C)c1C1=C(OC(=O)C(C)C)C2(CCC(OC)CC2)NC1=O` (centres unmarked) [Example I-1-b-4], the “efficacy (caterpillars killed)” value came out at 100%.
The same measure, in the same setting: the value for `CCc1ccc(-c2ccc(Cl)cc2)c(C)c1C1=C(O)C2(CCOCC2)OC1=O` [Example I-2-a-7] was 100%.
The same measure, in the same setting: the value for `CCc1ccc(-c2ccc(Cl)cc2)c(CC)c1C1=C(OC(=O)C(C)C)C2(CCOCC2)NC1=O` [Example I-1-b-1] was 83%.
On the same count and under the same terms, to `CCc1c(-c2ccc(Cl)cc2)ccc(C)c1C1=C(O)C2(CCC(OC)CC2)NC1=O` (centres unmarked) [Example I-1-a-16] belongs 100%.

The subject of the next experiment is Boophilus microplus. Kind of experiment: Boophilus microplus test (BOOPMI injection). In kind it is in vivo. The following applies: application rate 20 μg/animal; injection into the abdomen; after 7 days. As to the method:
Boophilus microplus Test (BOOPMI Injection)
• Solvent: Dimethyl sulphoxide
To produce a suitable preparation of active compound, 10 mg of active compound are mixed with 0.5 ml of solvent and the concentrate is diluted with solvent to the desired concentration. The solution of active compound is injected into the abdomen (Boophilus microplus) and the animals are transferred into dishes and stored in a climatized room. The efficacy is monitored for deposition of fertile eggs.
After 7 days, the effect in % is determined. 100% means that none of the ticks has laid any fertile eggs.
As for `O=C1NC2(CCOCC2)C(O)=C1c1c(Cl)ccc(-c2ccc(F)cc2)c1Cl` [Example I-1-a-6], the “efficacy (deposition of fertile eggs)” value turned out to be 90%.

Source of the values: US8901038B2, “Biphenyl-substituted cyclic ketoenols” (Bayer CropScience AG, priority 2010, dated 2014).
